Measurements taken from the NIST ThermoML archive (doi:10.1021/je050402s).
± gives the expanded uncertainty stated by the source.

Experiment: xn = mol fraction of the nth substance listed
Conditions: 100.5 kPa, Liquid; for viscosity: Capillary tube (Ostwald / Ubbelohde) method

CC(=O)OCc1ccccc1 [benzyl ethanoate] + CCO
Conditions | mass density, 288.15 K [kg/m3] | mass density, 298.15 K [kg/m3] | mass density, 308.15 K [kg/m3] | mass density, 318.15 K [kg/m3] | viscosity, 288.15 K [mPa·s] | viscosity, 298.15 K [mPa·s] | viscosity, 308.15 K [mPa·s] | viscosity, 318.15 K [mPa·s]
x1 = 0.05 | 825.52 ± 0.4 | 816.73 ± 0.41 | 807.83 ± 0.43 | 798.78 ± 0.44 | 1.317 ± 0.014 | 1.089 ± 0.013 | 0.91 ± 0.013 | 0.766 ± 0.013
x1 = 0.1 | 852.86 ± 0.36 | 843.91 ± 0.38 | 834.85 ± 0.39 | 825.63 ± 0.4 | 1.328 ± 0.014 | 1.098 ± 0.014 | 0.92 ± 0.013 | 0.779 ± 0.013
x1 = 0.15 | 876.56 ± 0.33 | 867.47 ± 0.34 | 858.28 ± 0.36 | 848.94 ± 0.37 | 1.357 ± 0.014 | 1.123 ± 0.014 | 0.942 ± 0.013 | 0.796 ± 0.013
x1 = 0.2 | 897.58 ± 0.3 | 888.4 ± 0.32 | 879.1 ± 0.33 | 869.66 ± 0.34 | 1.393 ± 0.014 | 1.154 ± 0.014 | 0.967 ± 0.013 | 0.821 ± 0.013
x1 = 0.25 | 916.18 ± 0.28 | 906.92 ± 0.3 | 897.57 ± 0.31 | 888.07 ± 0.32 | 1.439 ± 0.014 | 1.191 ± 0.014 | 0.998 ± 0.013 | 0.846 ± 0.013
x1 = 0.3 | 932.86 ± 0.26 | 923.54 ± 0.28 | 914.12 ± 0.29 | 904.56 ± 0.3 | 1.489 ± 0.015 | 1.231 ± 0.014 | 1.031 ± 0.013 | 0.875 ± 0.013
x1 = 0.35 | 947.82 ± 0.25 | 938.44 ± 0.26 | 928.98 ± 0.27 | 919.38 ± 0.29 | 1.543 ± 0.015 | 1.274 ± 0.014 | 1.067 ± 0.013 | 0.906 ± 0.013
x1 = 0.4 | 961.41 ± 0.24 | 952 ± 0.25 | 942.5 ± 0.26 | 932.88 ± 0.27 | 1.601 ± 0.015 | 1.319 ± 0.014 | 1.104 ± 0.014 | 0.937 ± 0.013
x1 = 0.45 | 973.74 ± 0.23 | 964.29 ± 0.24 | 954.76 ± 0.25 | 945.12 ± 0.26 | 1.661 ± 0.015 | 1.365 ± 0.014 | 1.142 ± 0.014 | 0.971 ± 0.013
x1 = 0.5 | 984.92 ± 0.22 | 975.44 ± 0.23 | 965.91 ± 0.24 | 956.27 ± 0.25 | 1.724 ± 0.015 | 1.413 ± 0.014 | 1.182 ± 0.014 | 1.005 ± 0.013
x1 = 0.55 | 995.2 ± 0.21 | 985.72 ± 0.22 | 976.17 ± 0.23 | 966.52 ± 0.24 | 1.789 ± 0.016 | 1.465 ± 0.015 | 1.223 ± 0.014 | 1.04 ± 0.013
x1 = 0.6 | 1004.68 ± 0.21 | 995.21 ± 0.21 | 985.66 ± 0.22 | 976.03 ± 0.22 | 1.859 ± 0.016 | 1.518 ± 0.015 | 1.268 ± 0.014 | 1.077 ± 0.014
x1 = 0.65 | 1013.4 ± 0.22 | 1003.92 ± 0.21 | 994.38 ± 0.21 | 984.76 ± 0.22 | 1.929 ± 0.016 | 1.571 ± 0.015 | 1.312 ± 0.014 | 1.116 ± 0.014
x1 = 0.7 | 1021.55 ± 0.23 | 1012.1 ± 0.22 | 1002.56 ± 0.21 | 992.96 ± 0.21 | 2.003 ± 0.016 | 1.629 ± 0.015 | 1.36 ± 0.014 | 1.156 ± 0.014
x1 = 0.75 | 1029.05 ± 0.24 | 1019.58 ± 0.23 | 1010.07 ± 0.22 | 1000.51 ± 0.21 | 2.081 ± 0.017 | 1.691 ± 0.015 | 1.409 ± 0.014 | 1.197 ± 0.014
x1 = 0.8 | 1036.05 ± 0.25 | 1026.61 ± 0.24 | 1017.13 ± 0.23 | 1007.6 ± 0.22 | 2.163 ± 0.017 | 1.76 ± 0.016 | 1.463 ± 0.015 | 1.241 ± 0.014
x1 = 0.85 | 1042.59 ± 0.27 | 1033.16 ± 0.26 | 1023.71 ± 0.24 | 1014.22 ± 0.23 | 2.249 ± 0.017 | 1.83 ± 0.016 | 1.524 ± 0.015 | 1.289 ± 0.014
x1 = 0.9 | 1048.78 ± 0.28 | 1039.39 ± 0.27 | 1029.98 ± 0.26 | 1020.53 ± 0.25 | 2.339 ± 0.018 | 1.906 ± 0.016 | 1.588 ± 0.015 | 1.341 ± 0.014
x1 = 0.95 | 1054.57 ± 0.29 | 1045.21 ± 0.28 | 1035.84 ± 0.27 | 1026.44 ± 0.26 | 2.44 ± 0.018 | 1.987 ± 0.016 | 1.652 ± 0.015 | 1.392 ± 0.014
x1 = 1 | 1060.11 ± 0.31 | 1050.75 ± 0.29 | 1041.39 ± 0.28 | 1032.03 ± 0.27 | 2.53 ± 0.018 | 2.056 ± 0.017 | 1.703 ± 0.015 | 1.432 ± 0.015
